Laboratory results taken from patent US20250186646A1, “Use of Volatile Compositions to Limit or Eliminate Perception of Fecal Malodour” (Firmenich SA, priority 2016, published 2025).

What was measured:
p-cresol = test: Reduction of perceived intensity of p-cresol by MOCs (Table 16); format: in vivo; settings: for p-cresol Dyn Conc: concentration at which the MOC reduces the perceived intensity of p-cresol; for p-cresol Reduction: perceived intensity of p-cresol, at the Dyn Conc
butyric acid = test: Reduction of perceived intensity of butyric acid by MOCs (Table 16); format: in vivo; settings: for Butyric acid Dyn Conc: concentration at which the MOC reduces the perceived intensity of butyric acid; for Butyric acid Reduction: perceived intensity of butyric acid, at the Dyn Conc
indole = test: Reduction of perceived intensity of indole by MOCs (Table 16); format: in vivo; settings: for Indole Dyn Conc: concentration at which the MOC reduces the perceived intensity of indole; for Indole Reduction: perceived intensity of indole, at the Dyn Conc
DMTS = test: Reduction of perceived intensity of DMTS by MOCs (Table 16); format: in vivo; settings: for DMTS Dyn Conc: concentration at which the MOC reduces the perceived intensity of DMTS; for DMTS Reduction: perceived intensity of DMTS, at the Dyn Conc
[1] = Olfactory detection thresholds (ODT); settings: gas phase
butyric acid receptors = test: Ex vivo live neuron assay antagonism screening; format: cell-based, mice; settings: butyric acid malodour target
Excerpt: In the ex vivo live neuron assay, olfactory sensory neurons (OSNs) are extracted from the olfactory epithelium of mice and can be tested for responses to sequentially delivered stimuli, where responses are detected through live-cell calcium-imaging microscopy. It has been established through prior research in the field that the vast majority of extracted OSNs express 1 out of the approximately 1200 odourant receptors (ORs) present in the genome of a mouse, such that in our samples of extracted OSNs, the majority of the 1200 ORs should have been represented in at least one OSN. Since the responses of the OSNs to the delivered stimuli are entirely driven by the expressed OR, the OSNs selectively detect and collectively encode the identity and intensity of odourants. By stimulating the OSNs with MO molecules and measuring the response of each OSN, the subset in which a response is induced is those that detect and therefore presumably encode the MO. By subsequently delivering a mixture of MO and a candidate antagonist to the same cells, the degree of suppression of signal in each MO-responsive OSN can be determined (“level of inhibition”). […] In addition, the proportion of MO-responsive OSNs displaying low, medium and high inhibition was calculated. […]

[2] = tested on: fecal malodour reconstitution; test: Olfactometer blind sensory evaluation of test and control formulations (Example 15); format: in vivo; set-up: Fecal Score / Freshness Score / Pleasantness Score: scale not given here; settings: for Fecal Score: in combination with fecal reconstitution; for Fecal Score left: relative to fecal reconstitution alone (100)
Protocol: (§1) The performance of a test formulation containing LILYFLORE, Violet AT and Isoraldeine to counteract the fecal malodour perceived from a fecal malodour reconstitution was tested. The amount of each single ingredient in the test formulation was the same as the corresponding concentration of the ingredient that was incorporated into the Floral compositions. Separate control formulations were also included, comprising LILYFLORE, Violet AT and Isoraldeine separately, at the same concentration as each single ingredient in the test formulation. The sensory evaluation was blind, and performed using olfactometers and a set of more than 30 participants evaluating blind. In parallel, the headspace concentration of the ingredients from the test and three control formulations was determined.
as §1, with “of another” for “of a”, “and dihydrolinalol” for “and Isoraldeine”, “tested.” for “tested. The amount of each single ingredient in the test formulation was the same as the corresponding concentration of the ingredient that was incorporated into the Floral compositions.”
The performance of another test formulation containing LILYFLORE, isoraldeine, Violet AT and dihydrolinalol to counteract the fecal malodour perceived from a fecal malodour reconstitution was tested. Separate control formulations were also included, comprising LILYFLORE, Violet AT, isoraldeine and dihydrolinalol separately, at the same concentration as each single ingredient in the test formulation. The sensory evaluation was blind, and performed using olfactometers and a set of more than 30 participants evaluating blind. In parallel, the headspace concentration of the ingredients from the test and […] control formulations was determined.

Molecule | p-cresol Dyn Conc (p-cresol) | p-cresol Reduction (p-cresol) | Butyric acid Dyn Conc (butyric acid) | Butyric acid Reduction (butyric acid) | Indole Dyn Conc (indole) | Indole Reduction (indole) | DMTS Dyn Conc (DMTS) | DMTS Reduction (DMTS) | olfactory detection thresholds (ODT) [1] | Fecal % Redn ([2]; Table 20) | Freshness Score ([2]; Table 20) | Pleasantness Score ([2]; Table 20) | Fecal Score ([2]; Table 20) | Fecal Score left ([2]; Table 20) | other results
C/C=C/C(=O)C1C(C)=CCCC1(C)C (racemic) [Alpha damascone, (+−)-(2E)-1-(2,6,6-trimethyl-2-cyclohexen-1-yl)-2-buten-1-one] | 0.0413 µg/L | 62 | 0.041 µg/L | 43 |  |  |  |  |  |  |  |  |  |  | 
CC(C)=CCCC(C)CCO (racemic) [Citronellol BJ, (+−)-3,7-DIMETHYL-6-OCTEN-1-OL] | 0.11 µg/L | 61 | 0.0947 µg/L | 55 | 0.252 µg/L | 65 |  |  |  |  |  |  |  |  | 
CCCCCC1CCCC1=O (racemic) [Delphone, (+−)-2-pentylcyclopentanone] | 0.0488 µg/L | 64 |  |  |  |  | 0.046 µg/L | 67 |  |  |  |  |  |  | 
C=CC(C)(O)CCCC(C)C (racemic) [Dihydrolinalol, (+−)-3,7-DIMETHYL-1-OCTEN-3-OL] |  |  | 0.76 µg/L | 64 |  |  |  |  | 0.00137 µg/L | 30% | 3.2 | 3.2 | 6.1 | 70 | antagonism of malodour receptors (butyric acid receptors): antagonist of butyric acid receptors; Fecal % Redn ([2]; Table 19): 35%; Freshness Score ([2]; Table 19): 3.9; Pleasantness Score ([2]; Table 19): 3.5; Fecal Score ([2]; Table 19): 5.6; Fecal Score left ([2]; Table 19): 65
Cc1ccc2c(c1)CC(C)(CO)C2 (racemic) [LILYFLORE, (+−)-2,5-DIMETHYL-2-INDANMETHANOL] | 0.22 µg/L | 76 | 0.0351 µg/L | 58 | 0.206 µg/L | 81 | 0.126 µg/L | 64 | 0.000128 µg/L | 45% | 3.9 | 3.8 | 4.8 | 55 | Fecal % Red ([2]; Table 18): 56%; Freshness Score ([2]; Table 18): 4.4; Pleasantness Score ([2]; Table 18): 4.8; Fecal Score ([2]; Table 18): 3.8; Fecal Score left ([2]; Table 18): 44; Fecal % Redn ([2]; Table 19): 45%; Freshness Score ([2]; Table 19): 4.0; Pleasantness Score ([2]; Table 19): 4.1; Fecal Score ([2]; Table 19): 4.7; Fecal Score left ([2]; Table 19): 55
CC(=O)OC(c1ccccc1)C(Cl)(Cl)Cl (racemic) [Rosinol Cryst, (+−)-2,2,2-TRICHLORO-1-PHENYLETHYL ACETATE] |  |  |  |  |  |  | 0.659 µg/L | 38 |  |  |  |  |  |  | 
CC(=O)OCc1ccccc1 [Benzyl acetate, Benzyl Acetate] |  |  | 1.31 µg/L | 54 |  |  |  |  |  |  |  |  |  |  | 
CCCCCC/C(C=O)=C\c1ccccc1 [Hexylcinnamic aldehyde, (2E)-2-benzylideneoctanal] | 1.34 µg/L | 39 | 1.34 µg/L | 26 |  |  |  |  |  |  |  |  |  |  | 
OCCc1ccccc1 [Phenylethyl alcohol, 2-PHENYLETHANOL] | 0.318 µg/L | 49 |  |  | 0.538 µg/L | 46 | 1.03 µg/L | 55 |  |  |  |  |  |  | 
(1RS,2RS)-2,4-dimethyl-3-cyclohexene-1-carbaldehyde (A) + (1RS,2SR)-2,4-dimethyl-3-cyclohexene-1-carbaldehyde (B) [Zestover] | 0.0607 µg/L | 66 | 0.0809 µg/L | 68 | 0.348 µg/L | 82 | 0.38 µg/L | 78 |  |  |  |  |  |  | 
(+−)-(3E)-3-methyl-4-(2,6,6-trimethyl-2-cyclohexen-1-yl)-3-buten-2-one (A) + (+−)-(1E)-1-(2,6,6-trimethyl-2-cyclohexen-1-yl)-1-penten-3-one (B) [Isoraldeine 70P] | 0.0674 µg/L | 49 | 0.0674 µg/L | 25 | 0.542 µg/L | 79 | 0.216 µg/L | 69 | 0.000192 µg/L | 49% | 4.6 | 4.5 | 4.4 | 51 | Fecal % Red ([2]; Table 18): 58%; Freshness Score ([2]; Table 18): 4.8; Pleasantness Score ([2]; Table 18): 5.1; Fecal Score ([2]; Table 18): 3.6; Fecal Score left ([2]; Table 18): 42
(+−)-(3E)-4-(2,6,6-trimethyl-2-cyclohexen-1-yl)-3-buten-2-one (A) + (3E)-4-(2,6,6-trimethyl-1-cyclohexen-1-yl)-3-buten-2-one (B) [Violet AT] | 0.133 µg/L | 85 | 0.123 µg/L | 55 | 0.133 µg/L | 72 | 0.151 µg/L | 81 | 0.000508 µg/L | 44% | 4.1 | 4.2 | 4.9 | 56 | Fecal % Red ([2]; Table 18): 58%; Freshness Score ([2]; Table 18): 4.7; Pleasantness Score ([2]; Table 18): 5.0; Fecal Score ([2]; Table 18): 3.6; Fecal Score left ([2]; Table 18): 42; Fecal % Redn ([2]; Table 19): 53%; Freshness Score ([2]; Table 19): 4.5; Pleasantness Score ([2]; Table 19): 4.8; Fecal Score ([2]; Table 19): 4.1; Fecal Score left ([2]; Table 19): 47
